What follows are molecules tested against skeletal myofibrils (Rabbit Psoas) myosin ATPase (assay: Skeletal Myofibril ATPase Assay). Settings: PK/LDH coupled, absorbance at 340 nm.
Format: biochemical
Procedure: Overview: Myosin ATPase activity was assessed by using a coupled reaction system, in which ADP generated by the myosin ATPase function was coupled to the disappearance of NADH through the pyruvate kinase/lactate dehydrogenase (PK-LDH) system. Myosin ATPase activity produces ADP, which was used as a substrate for PK to produce pyruvate and regenerate ATP. The pyruvate was then used as a substrate by LDH to oxidize NADH to NAD+. The rate of the reaction was monitored through the time-dependent disappearance of NADH using absorbance at 340 nm. Inhibition of ATPase activity by the assayed compounds was indicated by a reduced rate of NADH loss, relative to vehicle-treated controls, over the experimental time window. To assess the selectivity of the assayed compounds for skeletal myofibrils, the compounds were counter-screened in cardiac myofibrils.
Materials: The following stock solutions and reagents were used in the Skeletal Myofibril ATPase Assay:
Stock Solutions of pCa buffer. Combine PIPES, CaCl2, and EGTA solutions with 70 mL of water. Adjust pH to 7.0 and bring final volume to 100 mL.
Buffer A & Buffer B. Buffers were stored on ice until use.
Skeletal Myofibril ATPase Assay Procedure: BSA, ATP, NADH, PEP, and DTT solutions were thawed at room temperature, then transferred to ice. Pellet-frozen myofibrils (approximately twice the required volume) were transferred into a sufficiently large tube and capped. Myofibrils were thawed by rolling in a water bath for approximately 15 min at room temperature and cooled on ice. Buffers A and B were prepared by adjusting volumes as necessary for required number of wells and stored on ice. 0.5 μL of the compounds to be assayed were added into wells of a 384-well plate. Buffers A and B were mixed by inversion immediately prior to use, then 25 μL of each was dispensed using a Multidrop dispenser (Buffer A first, then Buffer B). The absorbance within the wells was measured at 340 nm, using a kinetic protocol in which the wells are read every 1.5-2 min for 1 h. The reaction rate was qualitatively assessed by subtracting the minimum absorbance value from the maximum value for each well, using either the SoftMax Pro plate reader software or a spreadsheet program such as Excel. Using GraphPad Prism 8.0, the data was normalized, with 100% activity defined as the absorbance change in the 1% DMSO vehicle wells and 0% assigned to no change in absorbance over the course of the experiment. The normalized data were fit to a variable-slope four-parameter logistic model, constraining the bottom to be 0 or greater. Compounds of Table 1 to 3 were tested and results of the assay appear in Table 4 herein. A=IC50 is less than or equal to 10 μM; B=IC50 is greater than 10 μM and less than 100 μM; C=IC50 is greater than 100 μM.

| Compound | IC50 |
| --- | --- |
| O=c1ccc(-c2cnc(OCC(F)(F)F)nc2)nn1CCC1CCC1 [Compound 1, 2-(2-cyclobutylethyl)-6-(2-(2,2,2-trifluoroethoxy)pyrimidin-5-yl)pyridazin-3(2H)-one] | ≤ 10 µM |
| O=c1ccc(-c2cnc(OCC(F)(F)F)nc2)nn1CCCc1ccccc1 [Compound 2, 2-(3-phenylpropyl)-6-(2-(2,2,2-trifluoroethoxy)pyrimidin-5-yl)pyridazin-3(2H)-one] | ≤ 10 µM |
| CC1CC1CCn1nc(-c2cnc(OCC(F)(F)F)nc2)ccc1=O (stereo not shown) [Compound 3, 2-(2-(2-methylcyclopropyl)ethyl)-6-(2-(2,2,2-trifluoroethoxy)pyrimidin-5-yl)pyridazin-3(2H)-one] | ≤ 10 µM |
| O=c1ccc(-c2cnc(OCC(F)(F)F)nc2)nn1CCc1ccccc1 [Compound 4, 2-phenethyl-6-(2-(2,2,2-trifluoroethoxy)pyrimidin-5-yl)pyridazin-3(2H)-one] | ≤ 10 µM |
| O=c1ccc(-c2cnc(OCC(F)(F)F)nc2)nn1CCC1CC1 [Compound 5, 2-(2-cyclopropylethyl)-6-(2-(2,2,2-trifluoroethoxy)pyrimidin-5-yl)pyridazin-3(2H)-one] | ≤ 10 µM |
| O=c1ccc(-c2cnc(OCC(F)(F)F)nc2)nn1CCc1ccc(Cl)cc1 [Compound 6, 2-(4-chlorophenethyl)-6-(2-(2,2,2-trifluoroethoxy)pyrimidin-5-yl)pyridazin-3(2H)-one] | ≤ 10 µM |
| O=c1ccc(-c2cnc(OCC(F)(F)F)nc2)nn1CCC12CC(C1)C2 [Compound 7, 2-(2-(bicyclo[1.1.1]pentan-1-yl)ethyl)-6-(2-(2,2,2-trifluoroethoxy)pyrimidin-5-yl)pyridazin-3(2H)-one] | ≤ 10 µM |
| CCCn1nc(-c2cnc(OCC(F)(F)F)nc2)ccc1=O [Compound 8, 2-propyl-6-(2-(2,2,2-trifluoroethoxy)pyrimidin-5-yl)pyridazin-3(2H)-one] | ≤ 10 µM |
| O=c1ccc(-c2cnc(OCC(F)(F)F)nc2)nn1CCc1cncc(F)c1 [Compound 9, 2-(2-(5-fluoropyridin-3-yl)ethyl)-6-(2-(2,2,2-trifluoroethoxy)pyrimidin-5-yl)pyridazin-3(2H)-one] | ≤ 10 µM |
| O=c1ccc(-c2cnc(OCC(F)(F)F)nc2)nn1CCc1ccccn1 [Compound 10, 2-(2-(pyridin-2-yl)ethyl)-6-(2-(2,2,2-trifluoroethoxy)pyrimidin-5-yl)pyridazin-3(2H)-one] | ≤ 10 µM |
| O=c1ccc(-c2ccc(OC(F)F)cc2)nn1CCc1ccc(Cl)cc1 [Compound 11, 2-(4-chlorophenethyl)-6-(4-(difluoromethoxy)phenyl)pyridazin-3(2H)-one] | ≤ 10 µM |
| O=c1ccc(-c2ccc(OC(F)F)nc2)nn1CCc1ccc(Cl)cc1 [Compound 12, 2-(4-chlorophenethyl)-6-(6-(difluoromethoxy)pyridin-3-yl)pyridazin-3(2H)-one] | ≤ 10 µM |
| CC(Cn1nc(-c2cnc(OCC(F)(F)F)nc2)ccc1=O)c1ccccc1 (stereo not shown) [Compound 13, 2-(2-phenylpropyl)-6-(2-(2,2,2-trifluoroethoxy)pyrimidin-5-yl)pyridazin-3(2H)-one] | ≤ 10 µM |
| COc1ccc(-c2ccc(=O)n(CC3CCCCC3)n2)cc1 [Compound 14, 2-(cyclohexylmethyl)-6-(4-methoxyphenyl)pyridazin-3(2H)-one] | ≤ 10 µM |
| O=c1ccc(-c2ccc(Cl)cc2)nn1CCc1ccccc1 [Compound 15, 6-(4-chlorophenyl)-2-phenethylpyridazin-3(2H)-one] | ≤ 10 µM |
| COc1ccc(-c2ccc(=O)n(CCc3ccccc3)n2)cc1 [Compound 16, 6-(4-methoxyphenyl)-2-phenethylpyridazin-3(2H)-one] | ≤ 10 µM |
| CC(C)(C)CCn1nc(-c2cnc(OCC(F)(F)F)nc2)ccc1=O [Compound 17, 2-(3,3-dimethylbutyl)-6-(2-(2,2,2-trifluoroethoxy)pyrimidin-5-yl)pyridazin-3(2H)-one] | 10 to 100 µM |
| O=c1ccc(-c2ccccc2)nn1CC(O)COCc1ccccc1Cl (stereo not shown) [Compound 18, 2-(3-((2-chlorobenzyl)oxy)-2-hydroxypropyl)-6-phenylpyridazin-3(2H)-one] | 10 to 100 µM |
| O=c1ccc(-c2cnc(OCC(F)(F)F)nc2)nn1CCc1ccncc1 [Compound 19, 2-[2-(pyridin-4-yl)ethyl]-6-[2-(2,2,2-trifluoroethoxy)pyrimidin-5-yl]pyridazin-3-one] | ≤ 10 µM |

| Compound | IC50 |
| --- | --- |
| CSc1ccc(-c2ccc(=O)n(C/C=C/c3ccccc3)n2)cc1 [Compound 20, 2-cinnamyl-6-(4-(methylthio)phenyl)pyridazin-3(2H)-one] | ≤ 10 µM |
| O=c1ccc(-c2ccc(Cl)cc2)nn1CC1CCCCC1 [Compound 21, 6-(4-chlorophenyl)-2-(cyclohexylmethyl)pyridazin-3(2H)-one] | ≤ 10 µM |
| O=c1ccc(-c2ccc3c(c2)OCCCO3)nn1CCOc1ccc(F)cc1 [Compound 22, 6-(3,4-dihydro-2H-benzo[b][1,4]dioxepin-7-yl)-2-(2-(4-fluorophenoxy)ethyl)pyridazin-3(2H)-one] | 10 to 100 µM |
| N#CCn1nc(-c2ccc(Br)cc2)ccc1=O [Compound 23, 2-(3-(4-bromophenyl)-6-oxopyridazin-1(6H)-yl)acetonitrile] | 10 to 100 µM |
| CCOc1ccc(-c2ccc(=O)n(CCNC(=O)CC3CCCC3)n2)cc1 [Compound 24, 2-cyclopentyl-N-(2-(3-(4-ethoxyphenyl)-6-oxopyridazin-1(6H)-yl)ethyl)acetamide] | > 100 µM |
| N#CCn1nc(-c2cnc(OCC(F)(F)F)nc2)ccc1=O [Compound 25, 2-(6-oxo-3-(2-(2,2,2-trifluoroethoxy)pyrimidin-5-yl)pyridazin-1(6H)-yl)acetonitrile] | 10 to 100 µM |
| CC(C)OCCn1nc(-c2ccc3c(c2)OCCCO3)ccc1=O [Compound 26, 6-(3,4-dihydro-2H-benzo[b][1,4]dioxepin-7-yl)-2-(2-isopropoxyethyl)pyridazin-3(2H)-one] | 10 to 100 µM |
| C=C(C)Cn1nc(-c2ccc(Br)cc2)ccc1=O [Compound 27, 6-(4-bromophenyl)-2-(2-methylallyl)pyridazin-3(2H)-one] | 10 to 100 µM |
| CCOc1ccc(-c2ccc(=O)n(CCNC(=O)C3CCCC3)n2)cc1 [Compound 28, N-(2-(3-(4-ethoxyphenyl)-6-oxopyridazin-1(6H)-yl)ethyl)cyclopentanecarboxamide] | > 100 µM |
| CC(=O)NCCn1nc(-c2ccc(OC(F)F)cc2)ccc1=O [Compound 29, N-(2-(3-(4-(difluoromethoxy)phenyl)-6-oxopyridazin-1(6H)-yl)ethyl)acetamide] | > 100 µM |
| CS(=O)(=O)NCCn1nc(-c2ccc(OC(F)F)nc2)ccc1=O [Compound 30, N-(2-(3-(6-(difluoromethoxy)pyridin-3-yl)-6-oxopyridazin-1(6H)-yl)ethyl)methanesulfonamide] | > 100 µM |
| CC1(Cn2nc(-c3ccc(OC(F)F)nc3)ccc2=O)COC1 [Compound 31, 6-(6-(difluoromethoxy)pyridin-3-yl)-2-((3-methyloxetan-3-yl)methyl)pyridazin-3(2H)-one] | > 100 µM |
| CC1(Cn2nc(-c3cnc(OCC(F)(F)F)nc3)ccc2=O)COC1 [Compound 32, 2-((3-methyloxetan-3-yl)methyl)-6-(2-(2,2,2-trifluoroethoxy)pyrimidin-5-yl)pyridazin-3(2H)-one] | > 100 µM |
| CCNC(Cn1nc(-c2ccc(OC(F)F)nc2)ccc1=O)C(F)(F)F (stereo not shown) [Compound 33, 6-(6-(difluoromethoxy)pyridin-3-yl)-2-(2-(ethylamino)-3,3,3-trifluoropropyl)pyridazin-3(2H)-one] | > 100 µM |
| O=c1ccc(-c2ccc(OC(F)F)nc2)nn1CCO [Compound 34, 6-(6-(difluoromethoxy)pyridin-3-yl)-2-(2-hydroxyethyl)pyridazin-3(2H)-one] | > 100 µM |
| O=c1ccc(-c2ccc(Cl)cc2)nn1CC1CCOCC1 [Compound 35, 6-(4-chlorophenyl)-2-((tetrahydro-2H-pyran-4-yl)methyl)pyridazin-3(2H)-one] | > 100 µM |
| O=C(CCn1nc(-c2ccccc2)ccc1=O)NC1CCCCC1 [Compound 36, N-cyclohexyl-3-(6-oxo-3-phenylpyridazin-1(6H)-yl)propanamide] | > 100 µM |
| COc1ccc(-c2ccc(=O)n(CCNC(=O)Nc3cccs3)n2)cc1 [Compound 37, 1-(2-(3-(4-methoxyphenyl)-6-oxopyridazin-1(6H)-yl)ethyl)-3-(thiophen-2-yl)urea] | > 100 µM |

From patent US20230150977A1, “PYRIDAZINONE COMPOUNDS FOR THE TREATMENT OF NEUROMUSCULAR DISEASES” (Edgewise Therapeutics, Inc., priority 2020, published 2023)
